# Data reported in patent US11702394B2, “Inhibitors of phospholipid synthesis and methods of use” (The Board of Trustees of the Leland Stanford Junior …, priority 2018, dated 2023).
# Entries after “also recorded” stand apart in the source; their conditions may differ.
# Columns and labels:
# [1] = tested on: mouse derived MYC-induced HCC EC4 line; test: HCC EC4 proliferation / cell viability (FIG. 8, 9, 12A); type: cell-based; details: for cell viability as compared to FSG67: HCC EC4, 1-100 μM dose, two days (48 hours) post treatment
# Experimental: (§1) Cell Counting. A volume of cells was removed from culture medium and mixed with an equal volume of 0.4% Trypan blue stain. Then, 10 μL were taken out and placed into a hemocytometer for cell counting. Viable cell counts were used as a measure of cell proliferation.
# [2] = tested on: mouse-derived MYC-induced RCC E28 line; test: RCC E28 proliferation / cell viability (FIG. 7, 10B, 12B); type: cell-based
# Experimental: as §1
# (§2) All RCC cell lines were maintained in Dulbecco's Modified Eagle Medium (DMEM) supplemented with 10% fetal bovine serum (FBS), 1% L-glutamine, 1% sodium pyruvate, 1% nonessential amino acids, and Antibiotic-Antimycotic. All lymphoma lines were maintained in RPMI 1640 medium supplemented with 10% FBS, 50 μM β-mercaptoethanol, and […]
# [3] = tested on: human MYC-induced Burkitt's Lymphoma line P493; test: BCL P493 cell viability (FIG. 10A, 12C); type: cell-based; details: BCL P493, 1-100 μM dose, five days post treatment
# Experimental: as §1, §2
# [4] = tested on: human lymphoma lines; test: Proliferation of human lymphoma lines (FIG. 5); type: cell-based; details: 1-100 μM, 24 hours, various human lymphoma lines
# Experimental: as §1, §2
# [5] = tested on: mouse-derived T-ALL line; test: Response in mouse-derived T-ALL line at high, low or no MYC (FIG. 6); type: cell-based; details: 1-100 μM; MYC levels controlled by doxycycline-off system
# Experimental: as §1, §2
# [6] = tested on: fatty acids and PGs; test: Lipid profile after TOFA or FSG67 (FIG. 11); parameters: species or system mouse
# Experimental: DESI-MSI was used for generating two-dimensional chemical maps of 16 μm-thick tissue sections in order to assess the lipid profiles of tissue. The tissue samples were snap-frozen in liquid nitrogen and stored at −80° C. before processing. The frozen samples were cut into 16 μm sections at −21° C. using a cryomicrotome and thaw-mounted onto microscope slides. The slides were stored at −80° C. Prior to analysis, the slides were dried under a vacuum in a desiccator for approximately 20 minutes. A laboratory-built DESI-MSI source coupled to an LTQ-Orbitrap-XL mass spectrometer (Thermo Fisher Scientific) was utilized, and DESI-MSI was performed in the negative ion mode at m/z 90-1,000 with a spatial resolution of 200 μm (FIG. S1). The Orbitrap was used as the mass analyzer while set to 60,000 resolving power. Mouse tissue samples were imaged by this method using dimethylformamide and acetonitrile (1:1) as a solvent system at a flow rate of 0.5 μL/min. The N2 pressure was set to 175 psi. In DESI-MSI, charged solvents are sprayed onto the tissue, resulting in molecules, such as metabolites and lipids, to be dissolved and extracted from the tissue surface, then transferred into a mass spectrometer for measurement of the mass-to-charge (m/z) ratios. The software ImgGenerator (freeware, www.msimaging.net/) was used for converting raw files into 2D images. Spatially accurate ion images were assembled using BioMap software (freeware, www.maldi-msi.org/). After DESI-MSI, the same tissue section was subjected to a standard H&E staining for histopathologic evaluation using light microscopy. DESI-MS ion images were compared with optical microscopy images of the same-tissue H&E-stained tissue sections for delineation of tumor foci. Tandem MS analyses were performed using both the Orbitrap and the linear ion trap for mass analysis to confirm lipid identity. The LipidMaps database (www.lipidmaps.org/) was also used to assist in lipid identification.
# [7] = tested on: MYC-induced tumors; test: MYC-induced tumors in xenograft and primary mouse models; type: in vivo
# Description: A Tet system was used to conditionally activate MYC, in the liver, kidney, lymphocyte, and lung tissue of transgenic mice. In this system, […] In the absence of tetracycline, transcription of the oncogene is activated. Oncogene expression was activated in mice by removal of doxycycline (a stable analog of tetracycline) in the mice's drinking water. All animal studies were approved by the Stanford University Administrative Panel on Laboratory Animal Care (APLAC).
# [8] = target: glycerol 3-phosphate acyltransferase (GPAT); details: inhibitor of GPAT; cited from earlier work
# [9] = tested on: diet-induced obese mice; details: cited from earlier work
structure (smiles),measurement,setting,value
[2H]c1c([2H])c([2H])c(C(=O)O)c(NS(=O)(=O)CCCCCCCCC)c1[2H] [GFZ1.1],cell viability as compared to FSG67,[1],significant difference in cell viability
CCCCCCCCCS(=O)(=O)Nc1ccccc1C(=O)OC [GFZ1.5],cell viability as compared to FSG67,"[2]; RCC E28, 1-100 μM dose, two days (48 hours) post treatment",significant difference in cell viability
same,cell viability as compared to FSG67,[1],significant difference in cell viability
same,cell viability as compared to FSG67,[3],significant difference in cell viability
"CCCCCCCCCS(=O)(=O)Nc1ccccc1C(=O)O [FSG67, 2-(Nonylsulfonamido) benzoic acid]",cell proliferation,[4],suppresses cell proliferation
same,"therapeutic response, high MYC vs. low or no MYC",[5],induces therapeutic response in high MYC (no dox) vs. low or no MYC; also recorded: induced a therapeutic response in high MYC (no dox)
same,RCC E28 proliferation,[2]; 1-100 μM,suppresses RCC E28 proliferation
same,HCC EC4 proliferation,[1]; 1-100 μM,suppresses HCC EC4 proliferation
same,"depletion of lipids (fatty acids, PGs)",[6],depletes only PGs
same,levels of fatty acids upstream of GPAT (oleate),[6],not perturbing levels of fatty acids that are upstream of GPAT
same,MYC-induced tumorigenesis,[7],MYC-induced tumorigenesis was blocked
same,metabolic changes,[7],metabolic changes were suppressed
same,tumor regression,[7],tumors regressed
same,IC50,[8],24 µM
same,body weight and adiposity,[9],decrease body weight and adiposity
same,energy utilization as fatty acid oxidation,[9],enhance energy utilization as fatty acid oxidation
same,food intake,[9],reduce food intake
same,hepatic steatosis,[9],reverse hepatic steatosis
same,insulin sensitivity,[9],enhance insulin sensitivity
CCCCCCCCCCCCCCOc1ccc(C(=O)O)o1 [TOFA],"depletion of lipids (fatty acids, PGs)",[6],depletes all fatty acids
[2H]C([2H])([2H])C([2H])([2H])C([2H])([2H])C([2H])([2H])C([2H])([2H])C([2H])([2H])C([2H])([2H])C([2H])([2H])C([2H])([2H])S(=O)(=O)Nc1ccccc1C(=O)OC [GFZ1.2],cell viability as compared to FSG67,[1],significant difference in cell viability
